Source: patent publication US9708370B2, “Azapeptides as CD36 binding compounds” (VALORISATION-RECHERCHE, LIMITED PARTNERSHIP, priority 2007, dated 2017)
Where two headings read alike, the source gives them in different places. Starred links: 1 amine or outer side, 2 acyl side, 3 side chain; linkers in the order of their positions; H or OH if unused. Non-standard residues stand in square brackets, D forms with d. Residues, ends and D or L forms follow the SMILES beside them. *: point of attachment. azaTyr = O=C(N(Cc1ccc(O)cc1)N[*:1])[*:2]; azaPhe = O=C(N(Cc1ccccc1)N[*:1])[*:2]; X2 = O=C(N(CCc1ccccc1)N[*:1])[*:2]; azaLeu = CC(C)CN(N[*:1])C(=O)[*:2]; Hydrocinnamoyl = O=C(CCc1ccccc1)*; X1 = O=C(N(CC1CCCCC1)N[*:1])[*:2]; azaPro = O=C(N1CCCN1[*:1])[*:2]

Experiments:
human GHS-R1a = human GHS-R1a (Homo sapiens (Human), UniProt Q92847); experiment: GHS-R1a binding assay, competition with 125I-ghrelin on membranes of LLC-PK1 cells expressing human GHS-R1a; settings: for binding affinity for GHS-R1a receptor in words: compared with GHRP-6
human GHS-R1a, sequence (Q92847 whole entry): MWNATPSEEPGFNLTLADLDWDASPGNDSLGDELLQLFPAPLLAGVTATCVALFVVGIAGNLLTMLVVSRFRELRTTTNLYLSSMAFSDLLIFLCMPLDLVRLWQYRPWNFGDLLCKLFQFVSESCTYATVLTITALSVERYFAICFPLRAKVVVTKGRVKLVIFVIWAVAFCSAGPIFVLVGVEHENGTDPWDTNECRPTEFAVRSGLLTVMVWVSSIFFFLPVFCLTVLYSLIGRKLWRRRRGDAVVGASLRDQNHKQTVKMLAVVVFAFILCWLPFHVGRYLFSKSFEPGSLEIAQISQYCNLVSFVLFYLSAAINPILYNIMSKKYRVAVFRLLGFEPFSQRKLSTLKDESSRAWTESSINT
Description: Rat ghrelin was radio iodinated with Na^125I using the lodo-Beads iodination reagent (Pierce #28665). Briefly, an lodo-bead was incubated with 2 mCi of Na^125I (Amersham) in 100 μL of 50 mM sodium phosphate buffer, pH 7.0 for 5 min at 22° C. The reaction was started by adding 20 nmol of the peptide (1 mM in 0.1 M acetic acid). The tube was incubated for 10 min at 22° C. The iodination was terminated by adding 1 mL of 0.1% TFA. The mono-iodinated peptide was purified by reverse-phase HPLC using a Vydac C18 ([…]) column (30 cm×0.39 cm) in combination with a binary elution system of (A) 0.1% TFA in H2O and (B) 0.1% TFA, 10% H2O, 90% acetonitrile. Fractions of 0.5 mL were collected and analyzed by its radioactive content.
Cells (1.4×10^6) were plated in 100 mm plates and transfected 24 h later with pCDNA3.1-hGHS-R1a (UMR cDNA Resource Center #GHSR0A0000) following the CaHPO4 precipitation method. Briefly, 40 μg of plasmid DNA was diluted in 500 μL of sterile H2O and added to an equal volume of a 4× CaCl2, pH 7.9 solution (2 mM Tris-HCl, 0.2 mM EDTA, 500 mM CaCl2). The mixture was then added slowly with air bubbles to 1 mL of 2× Hepes-buffered saline, pH 7.1 (50 mM Hepes, 280 mM NaCl, 1.5 mM Na2HPO4). After 30 min at room temperature, 1 mL was distributed evenly over the cells and let overnight. The medium was changed the next morning and the membrane preparation was made two days later.
Cells were washed twice with PBS and once with ice-cold homogenization buffer (50 mM Tris-HCl, pH 7.3, 5 mM MgCl2, 2.5 mM EDTA, 30 μg/ml bacitracin). Cells were scraped and harvested in 1.5 mL tubes. Cells were then lysed by temperature shock with two freeze/thaw cycles in liquid nitrogen. The tubes were centrifuged at 14000 g for 20 min. Pellets were resuspended in homogenization buffer and stored at −80° C. until used. Total protein concentrations were determined with the BCA protein assay kit (Pierce).
Competition experiments were performed by incubating 50 μg of LLC-PK1 membranes expressing human GHS-R1a with 15 fmol of ^125I-Ghrelin and increasing concentrations of unlabeled ghrelin or with increasing concentrations of azapeptides derivatives in 0.5 mL of binding buffer. Bound radiolabelled ligand was separated from free by filtration on Whatman GF/C filters pretreated with a 1% polyethylenimine solution. Filters were washed with 2×3 mL of washing buffer (50 mM Tris-HCl, pH 7.3, 10 mM MgCl2, 2.5 mM EDTA, 0.015% Triton X-100). Filters were counted in a LKB gamma counter. Curves were analyzed using Prism software (GraphPad Software Inc).

CD36 = CD36 (Rattus norvegicus (Rat), UniProt Q07969); experiment: CD36 receptor covalent photolabelling binding assay, competition with [125I]Tyr-Bpa-Ala-hexarelin on rat cardiac membranes; settings: for binding activity/affinity at CD36 in words: compared with parent peptide GHRP-6 or hexarelin
CD36, sequence (Q07969 whole entry): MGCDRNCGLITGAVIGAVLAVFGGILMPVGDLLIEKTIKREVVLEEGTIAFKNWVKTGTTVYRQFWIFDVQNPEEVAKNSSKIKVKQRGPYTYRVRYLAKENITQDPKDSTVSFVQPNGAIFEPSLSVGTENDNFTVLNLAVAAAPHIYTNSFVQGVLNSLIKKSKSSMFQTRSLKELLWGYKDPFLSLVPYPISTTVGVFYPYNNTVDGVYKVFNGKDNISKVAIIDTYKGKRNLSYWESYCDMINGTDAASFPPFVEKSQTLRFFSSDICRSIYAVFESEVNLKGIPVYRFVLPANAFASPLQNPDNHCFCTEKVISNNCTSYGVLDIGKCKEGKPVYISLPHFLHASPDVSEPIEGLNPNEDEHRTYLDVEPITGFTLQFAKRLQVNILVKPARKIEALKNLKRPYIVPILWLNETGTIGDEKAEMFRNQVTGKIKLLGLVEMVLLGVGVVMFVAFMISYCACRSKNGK
Description: The hearts from Sprague Dawley rats (300 g-325 g) from Charles River, used as a source of cardiac membranes, were prepared as follows: the heart was washed with ice-cold saline, and fatty and connective tissue was removed. The tissue was cut into small pieces with scissors and placed in a Sorvall centrifuge tube containing 5 ml/g of fresh tissue of Buffer A (10 mM NaHCO3, 5 mM NaN3, 10 μM Pefabloc, 0.1 μM Aprotinin, 1 μM Pepstatin A, 1 μM Leupeptin, pH 7.0). The suspension was homogenized with a Polytron at low speed, 3×15 sec. The homogenate was centrifuged at 8 700×g for 20 min and the supernatant was put on ice. The pellet was resuspended and homogenized with a Glass-teflon Potter by 5 strokes. The homogenate was centrifuged at 8 700×g for 10 min and this supernatant was combined with the first supernatant. The supernatant fluid was centrifuged at 35 000×g for 20 min, yielding a second pellet fraction that was suspended thoroughly in a glass homogenizer with a Teflon pestle in 20 ml/g of fresh tissue of Buffer B (20 mM Tris-maleate, 0.6M KCl, pH 6.8). The resulting suspension was centrifuged again at 35 000×g for 60 min. The third pellet fraction was resuspended thoroughly in a glass homogenizer with a Teflon pestle in 20 ml/g of fresh tissue of Buffer C (10 mM Tris/HCl buffer pH 7.4) followed with another centrifugation at 35 000×g for 60 min. The harvested precipitate was then suspended in a small volume (1-2 ml/g of fresh tissue) of 50 mM Tris/HCl buffer pH 7.4) containing 2 mM EGTA. The resulting membrane preparation was frozen at −80° C. Protein concentration was determined with bicinchoninic acid (BCA) method, using BSA as standard.
The iodination procedure was performed in the darkness. […] The reaction was started by adding 5 ul (3 nmol) of H2O2. The incubation was carried out at 22° C. for 5 min. The addition of H2O2 was repeated twice with 5 min incubation each time. The reaction was stopped with the addition of 1.4 ml of 0.1% TFA. The iodinated peptide was purified on a reverse-phase Vydac C18 column with a 60 min linear gradient (1 ml/min) from 20% to 50% acetonitrile (90%) in 0.1% TFA (10%).
Nonspecific binding was defined as binding not displaced by 50 μM corresponding peptide. All peptide containing solutions were diluted in Buffer B. Buffer A and B were degassed under vacuum, and used in capped tubes in order to minimize lipid peroxydation. Before the incubation period, all tubes were put under a low flow of nitrogen. All material was kept on ice and the binding assay was performed in darkness. After an incubation period of 60 min at 22° C. […] After centrifugation at 12 000×g for 15 minutes, the pellets were resuspended in 150 μl of sample buffer (62 mM Tris-HCl, pH 6.8, 2% SDS, 10% glycerol, 15% 2-mercapto-ethanol, and 0.05% bromophenol blue), and boiled for 5 min prior to being subjected to electrophoresis. Proteins (200 μg/100 μl) were separated on 7.5% SDS-PAGE (45 V overnight). The gels resulting from SDS/PAGE were fixed, colored in Coomassie Brilliant Blue R-250, dried, exposed to a storage phosphor intensifying screen (Amersham Biosciences), and analysed by using a Typhoon PhosphorImager (Amersham Biosciences) and ImageQuant 5.0 software to establish competition curves. Protein bands were quantified by densitometry. The covalent binding signal of 87 kDa was analyzed by densitometry using Typhoon Phospholmager™ (Typhoon, Amersham Biosciences) and ImageQuant 5.0® software to set competition curves.
Specific binding activities were defined as the ratio of the density of the protein band to that of a non-specific band. Results are expressed as the percentage of the density of the […] to that of the total binding band.

[1] = Table 5, read-out: IC50 Binding GHS-R1a
[2] = Table 6, read-out: IC50 Binding CD36
[3] = Table 4, LLCPK-1 membranes overexpressing GHS-R1a, radioiodinated (1-28) rat ghrelin as tracer, read-out: EC50 (text: IC50 values from competition curves in GHS-R1a radioreceptor assay)
[4] = Table 3, rat cardiac membranes, [125I]Tyr-Bpa-Ala-hexarelin as radioligand, read-out: IC50, binding affinity of aza peptide derivatives towards CD36

Row | IC50 (human GHS-R1a; [1]) [µM] | IC50 (CD36; [2]) [µM] | IC50 (human GHS-R1a; [3]) [µM] | IC50 (CD36; [4]) [µM] | Compound | binding affinity for GHS-R1a receptor in words (human GHS-R1a) | binding activity/affinity at CD36 in words (CD36)
1 | > 10 | > 10 |  |  | C[C@H](NC(=O)[C@@H](Cc1c[nH]c2ccccc12)NC(=O)[C@@H](N)Cc1cnc[nH]1)C(=O)N[C@@H](Cc1c[nH]c2ccccc12)C(=O)N1CCCN1C(=O)N[C@@H](CCCCN)C(N)=O [CP-AP-2, His-D-Trp-Ala-Trp-AzaPro-Lys-NH2] (H-H[dW]AW[azaPro]K-NH2) |  | 
2 | > 10 | > 10 |  |  | C[C@H](NC(=O)[C@@H](Cc1c[nH]c2ccccc12)NC(=O)[C@@H](N)Cc1cnc[nH]1)C(=O)N1CCCN1C(=O)N[C@H](Cc1ccccc1)C(=O)N[C@@H](CCCCN)C(N)=O [CP-AP-3, His-D-Trp-Ala-azaPro-D-Phe-Lys-NH2] (H-H[dW]A[azaPro][dF]K-NH2) |  | 
3 |  |  | 19.5 | 2890 | CC(C)CN(NC(=O)[C@H](C)NC(=O)[C@@H](Cc1c[nH]c2ccccc12)NC(=O)[C@@H](N)Cc1cnc[nH]1)C(=O)N[C@H](Cc1ccccc1)C(=O)N[C@@H](CCCCN)C(N)=O [DBG253-2, His-D-Trp-Ala-azaLeu-D-Phe-Lys-NH2] (H-H[dW]A[azaLeu][dF]K-NH2) |  | 
4 |  |  | 4.28 | 2100 | C[C@H](NC(=O)[C@@H](Cc1c[nH]c2ccccc12)NC(=O)[C@@H](N)Cc1cnc[nH]1)C(=O)NN(CC1CCCCC1)C(=O)N[C@H](Cc1ccccc1)C(=O)N[C@@H](CCCCN)C(N)=O [DBG253-4, His-D-Trp-Ala-azaCha-D-Phe-Lys-NH2] (H-H[dW]A[X1][dF]K-NH2) |  | 
5 |  |  | 3.74 | > 10 | C[C@H](NC(=O)[C@@H](Cc1c[nH]c2ccccc12)NC(=O)[C@@H](N)Cc1cnc[nH]1)C(=O)NN(CCc1ccccc1)C(=O)N[C@H](Cc1ccccc1)C(=O)N[C@@H](CCCCN)C(N)=O [DBG253-5, His-D-Trp-Ala-azahomoPhe-D-Phe-Lys-NH2] (H-H[dW]A[X2][dF]K-NH2) |  | 
6 |  |  | 0.771 | 13.2 | C[C@H](NC(=O)[C@@H](Cc1c[nH]c2ccccc12)NC(=O)[C@@H](N)Cc1cnc[nH]1)C(=O)N[C@@H](Cc1ccc(O)cc1)C(=O)N[C@H](Cc1ccccc1)C(=O)N[C@@H](CCCCN)C(N)=O [DBG253-7, His-D-Trp-Ala-Tyr-D-Phe-Lys-NH2] (H-H[dW]AY[dF]K-NH2) |  | 
7 |  |  | 3.25 | 12 | C[C@H](NC(=O)[C@@H](Cc1c[nH]c2ccccc12)NC(=O)[C@@H](N)Cc1cnc[nH]1)C(=O)N[C@H](Cc1ccc(O)cc1)C(=O)N[C@H](Cc1ccccc1)C(=O)N[C@@H](CCCCN)C(N)=O [DBG253-8, His-D-Trp-Ala-D-Tyr-D-Phe-Lys-NH2] (H-H[dW]A[dY][dF]K-NH2) |  | 
8 |  |  | 5.49 | > 10 | C[C@H](NC(=O)N(CC1CCCCC1)NC(=O)[C@@H](N)Cc1cnc[nH]1)C(=O)N[C@@H](Cc1c[nH]c2ccccc12)C(=O)N[C@H](Cc1ccccc1)C(=O)N[C@@H](CCCCN)C(N)=O [DBG253-13, His-azaCha-Ala-Trp-D-Phe- Lys-NH2] (H-H[X1]AW[dF]K-NH2) |  | 
9 | > 10 | 11.8 |  |  | C[C@H](NC(=O)[C@@H](Cc1c[nH]c2ccccc12)NC(=O)[C@@H](N)Cc1ccccc1)C(=O)NN(Cc1ccc(O)cc1)C(=O)N[C@H](Cc1ccccc1)C(=O)N[C@@H](CCCCN)C(N)=O [ZS554-F29, Phe-D-Trp-Ala-azaTyr-D-Phe-Lys-NH2] (H-F[dW]A[azaTyr][dF]K-NH2) |  | 
10 | > 10 | 2.95 |  |  | C[C@H](N)C(=O)N[C@H](Cc1c[nH]c2ccccc12)C(=O)N[C@@H](C)C(=O)NN(Cc1ccc(O)cc1)C(=O)N[C@H](Cc1ccccc1)C(=O)N[C@@H](CCCCN)C(N)=O [ZS555-F40, Ala-D-Trp-Ala-azaTyr-D-Phe-Lys-NH2] (H-A[dW]A[azaTyr][dF]K-NH2) | decreased drastically | without major change
11 | > 10 | 32.5 |  |  | C[C@H](NC(=O)[C@@H](Cc1c[nH]c2ccccc12)NC(=O)CCc1ccccc1)C(=O)NN(Cc1ccc(O)cc1)C(=O)N[C@H](Cc1ccccc1)C(=O)N[C@@H](CCCCN)C(N)=O [ZS556, Hydrocinnamyl-D-Trp-Ala-AzaTyr-D-Phe-Lys-NH2] (Hydrocinnamoyl-[dW]A[azaTyr][dF]K-NH2) |  | 

Row | Compound | IC50 (human GHS-R1a; [1]) [µM] | IC50 (CD36; [2]) [µM] | IC50 (human GHS-R1a; [3]) [µM] | IC50 (CD36; [4]) [µM] | binding affinity for GHS-R1a receptor in words (human GHS-R1a) | binding activity/affinity at CD36 in words (CD36)
12 | C[C@H](NC(=O)[C@@H](Cc1c[nH]c2ccccc12)NC(=O)[C@@H](N)Cc1cnc[nH]1)C(=O)NN(Cc1ccccc1)C(=O)N[C@H](Cc1ccccc1)C(=O)N[C@@H](CCCCN)C(N)=O [DBG253-1, His-D-Trp-Ala-azaPhe-D-Phe-Lys-NH2] (H-H[dW]A[azaPhe][dF]K-NH2) |  |  | 2.77 | 1.34 | reducing the binding affinity | maintaining the binding activity
13 | C[C@H](NC(=O)N(Cc1ccccc1)NC(=O)[C@@H](N)Cc1cnc[nH]1)C(=O)N[C@@H](Cc1c[nH]c2ccccc12)C(=O)N[C@H](Cc1ccccc1)C(=O)N[C@@H](CCCCN)C(N)=O [DBG253-9, His-azaPhe-Ala-Trp-D-Phe-Lys-NH2] (H-H[azaPhe]AW[dF]K-NH2) |  |  | 16.1 | 72.4 |  | 
